How the values were obtained:
[1] = target: dopamine transporter (DAT) (Rattus norvegicus, UniProt P23977); assay: Dopamine reuptake ([^3H]dopamine uptake) inhibition in rat brain synaptosomes; conditions: for IC50: DA Uptake EC50 (nM ± SD), rat caudate synaptosomes, 5 nM [^3H]dopamine, 15 min, 25° C., three experiments pooled; for Emax: read-out: DA Uptake Emax (% I ± SD)
Chain of dopamine transporter (DAT) (P23977 whole entry): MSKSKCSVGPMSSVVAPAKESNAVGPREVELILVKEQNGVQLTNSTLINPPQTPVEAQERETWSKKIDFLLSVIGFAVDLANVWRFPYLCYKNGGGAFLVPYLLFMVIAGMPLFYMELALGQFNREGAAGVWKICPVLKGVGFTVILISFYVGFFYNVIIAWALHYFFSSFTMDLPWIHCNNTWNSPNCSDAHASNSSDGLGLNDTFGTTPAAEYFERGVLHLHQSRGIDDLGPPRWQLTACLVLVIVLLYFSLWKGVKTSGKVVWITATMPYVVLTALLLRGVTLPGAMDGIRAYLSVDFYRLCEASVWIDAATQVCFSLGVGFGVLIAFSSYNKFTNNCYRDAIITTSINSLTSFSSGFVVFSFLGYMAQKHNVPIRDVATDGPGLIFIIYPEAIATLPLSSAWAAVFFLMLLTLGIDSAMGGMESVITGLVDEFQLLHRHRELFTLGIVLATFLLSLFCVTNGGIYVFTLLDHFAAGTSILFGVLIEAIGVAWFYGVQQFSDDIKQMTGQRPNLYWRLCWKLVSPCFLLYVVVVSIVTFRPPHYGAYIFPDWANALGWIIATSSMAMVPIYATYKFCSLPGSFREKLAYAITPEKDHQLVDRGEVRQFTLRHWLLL
Method: Freshly removed caudate was homogenized in 10% ice-cold sucrose with 12 strokes of a hand-held Potter-Elvehj em homogenizer followed by centrifugation at 1000×g for 10 min. The supernatants were saved on ice and used immediately. Transporter activity was assessed using 5 nM [^3H]dopamine. […] The selectivity of the uptake assay for dopamine active transporter (DAT) was optimized by including 100 nM citalopram and 100 nM desipramine as blockers of serotonin transporter (SERT) and norepinephrine transporter (NET) in the sucrose solution and assay buffer. Uptake inhibition assays were conducted at 25° C. and were initiated by adding 100 μl of tissue to 900 μL assay buffer containing test drug and [^3H]dopamine. Test drugs were diluted in assay buffer containing 1 mg/mL bovine serum albumin. Nonspecific uptake was measured by incubating in the presence of 10 μM indatraline. The reactions were stopped after 15 minutes by rapid vacuum filtration with a cell harvester (BRANDEL) over GF/B filters (Whatman) presoaked in wash buffer maintained at 25° C. (10 mM Tris-HCl, pH 7.4/150 mM NaCl). Filters were rinsed with 6 mL wash buffer and retained tritium was quantified by a MicroBeta liquid scintillation counter (PerkinElmer) after overnight extraction in 0.6 mL of liquid scintillation cocktail (Cytoscint, ICN). The data from three experiments were pooled and fit to a dose-response curve equation (using Kaleidagraph), to yield an Emax and EC50 value.
The data from three experiments were pooled and fit to a dose-response curve equation (using KaleidaGraph; Synergy Software, Reading, Pa.) to yield an Emax and IC50 value.

Row | Compound | melting point [°C] | IC50 [1] [nM] | Emax [1] [%]
1 | c1ccc2c(NCC(c3ccncc3)c3ccncc3)nc(-c3ccc4nccn4c3)nc2c1 [compound 158, N-(2,2-Di(Pyridin-4-yl)Ethyl)-2-(Imidazo[1,2-A]Pyridin-6-yl)Quinazolin-4-Amine] | 192 to 196 | 66 ± 10 | 68 ± 2
2 | c1ccc(CNc2ncc(-c3nc(NCC(c4ccccc4)c4ccccc4)c4ccccc4n3)cn2)cc1 [compound 46, 2-(2-(Benzylamino)Pyrimidin-5-yl)-N-(2,2-Diphenylethyl)Quinazolin-4-Amine] | 184 | 544 ± 248 | 60 ± 6
3 | CCN(CC)C(=O)[C@]1(c2ccccc2)C[C@@H]1CNc1nc(-c2cn3ccnc3cc2C)nc2ccccc12 [compound 171, (1R,2S)—N,N-Diethyl-2-(((2-(7-Methylimidazo[1,2-A]pyridin-6-yl)Quinazolin-4-yl)Amino)Methyl)-1-Phenylcyclopropanecarboxamide] | 225 to 228 | 16 ± 7 | 73 ± 5
4 | Oc1nc2cc(-c3nc(NCC(c4ccccc4)c4ccccc4)c4ccccc4n3)ccc2[nH]1 [compound 79, 5-(4-((2,2-Diphenylethyl)Amino)Quinazolin-2-yl)-1H-Benzo[D]Imidazol-2-ol] | 215 | 51 ± 14 | 94 ± 4
5 | Cn1ccc2cc(-c3nc(NCC(c4ccccc4)c4cccnc4)c4ccccc4n3)ccc21 (stereo not drawn) [compound 137, 2-(1-Methyl-1H-Indol-5-yl)-N-(2-Phenyl-2-(Pyridin-3-yl)Ethyl)Quinazolin-4-Amine] | 91 to 93 | 44 ± 8 | 76 ± 2
6 | c1ccc(C(CCNc2nc(-c3cncnc3)nc3ccccc23)c2ccccc2)cc1 [compound 22, N-(3,3-Diphenylpropyl)-2-(Pyrimidin-5-yl)Quinazolin-4-Amine] | 154 | 750 | 100
7 | c1ccc(C(CNc2nc(-c3cccc4[nH]ncc34)nc3ccccc23)c2ccccc2)cc1 [compound 35, N-(2,2-Diphenylethyl)-2-(1H-Indazol-4-yl)Quinazolin-4-Amine] | 229 | 475 ± 85 | 72 ± 3
8 | c1ccc(C(CNc2nc(-c3ccc4ncsc4c3)nc3ccccc23)c2ccccc2)cc1 [compound 70, 2-(Benzo [D]Thiazol-6-yl)-N-(2,2-Diphenylethyl)Quinazolin-4-Amine] | 198 | 45 ± 15 | 67 ± 4
9 | c1ccc(C(CNc2nc(-c3cnc(N4CCCC4)nc3)nc3ccccc23)c2ccccc2)cc1 [compound 37, N-(2,2-Diphenylethyl)-2-(2-(Pyrrolidin-1-yl)Pyrimidin-5-yl)Quinazolin-4-Amine] | 208 | 121 ± 27 | 66 ± 3
10 | CC(=O)N[C@H](CNc1nc(-c2ccc3nccn3c2)nc2ccccc12)c1ccccc1 [compound 149, (S)—N-(2-((2-(Imidazo[1,2-A]Pyridin-6-yl)Quinazolin-4-yl)Amino)-1-Phenylethyl)Acetamide] | 99 to 101 | 3720 ± 608 | 80 ± 4
11 | CCOC(=O)c1cn2cc(-c3nc(NCC(c4ccccc4)c4ccccc4)c4ccccc4n3)ccc2n1 [compound 113, Ethyl 6-(4-((2,2-Diphenylethyl)Amino)Quinazolin-2-yl)Imidazo[1,2-A]Pyridine-2-Carboxylate] | 204 | 74 ± 9 | 64 ± 1
12 | c1cncc(C(CNc2nc(-c3ccc4nccn4c3)nc3ccccc23)c2ccc[nH]2)c1 (stereo not drawn) [compound 155, 2-(Imidazo[1,2-A]Pyridin-6-yl)-N-(2-(pyridin-3-yl)-2-(1H-Pyrrol-2-yl)Ethyl)Quinazolin-4-Amine] | 121 to 124 | 175 ± 65 | 77 ± 6
13 | Cn1cc2c(-c3nc(NCC(c4ccccc4)c4ccccc4)c4ccccc4n3)cccc2n1 [compound 68, N-(2,2-Diphenylethyl)-2-(2-Methyl-2H-Indazol-4-yl)Quinazolin-4-Amine] | 121 | 195 ± 70 | 55 ± 4
14 | CCC(CNc1nc(-c2cn3ccnc3cc2C)nc2ccccc12)c1ccccc1 (stereo not drawn) [compound 188, 2-(7-Methylimidazo[1,2-A]Pyridin-6-yl)-N-(2-Phenylbutyl)Quinazolin-4-Amine] | 232 to 234 | 1.4 ± 0.2 | 75 ± 2
15 | Cc1cc2nccn2cc1-c1nc(NCC(O)c2ccccc2)c2ccccc2n1 (stereo not drawn) [compound 186] | 221 to 224 | 14 ± 3 | 74 ± 2
16 | c1ccc(C(CNc2nc(-c3ccc4cn[nH]c4c3)nc3ccccc23)c2ccccc2)cc1 [compound 34, N-(2,2-Diphenylethyl)-2-(1H-Indazol-6-yl)Quinazolin-4-Amine] | 223 | 123 ± 20 | 68 ± 2
17 | COc1cc2nc(-c3cccnc3)nc(NCC(c3ccccc3)c3ccccc3)c2cc1OC [compound 28, N-(2,2-Diphenylethyl)-6,7-Dimethoxy-2-(Pyridin-3-yl)Quinazolin-4-Amine] | 89 | 620 | < 100

Row | Compound | melting point [°C] | IC50 [1] [nM] | Emax [1] [%]
18 | COc1cc2nc(-c3cnc(N(C)C)nc3)nc(NCC(c3ccccc3)c3ccccc3)c2cc1OC [compound 23, 2-(2-(Dimethylamino)Pyrimidin-5-yl)-N-(2,2-Diphenylethyl)-6,7-Dimethoxyquinazolin-4-Amine] | 92 | 720 | 100
19 | c1ccc(CCNc2nc(-c3ccc4nccn4c3)nc3ccccc23)cc1 [compound 161, 2-(Imidazo[1,2-A]Pyridin-6-yl)-N-Phenethylquinazolin-4-Amine] | 246 to 247 | 168 ± 22 | 51 ± 1
20 | COc1ccc(C(CNc2nc(-c3ccc4nccn4c3)nc3ccccc23)C2(O)CCCCC2)cc1 (stereo not drawn) [compound 153, 1-(2-((2-(Imidazo[1,2-A]Pyridin-6-yl)Quinazolin-4-yl)Amino)-1-(4-Methoxyphenyl)ethyl)Cyclohexanol] | 247 to 249 | 41 ± 8 | 70 ± 2
21 | c1ccc(C(CNc2nc(-n3cnc4cncnc43)nc3ccccc23)c2ccccc2)cc1 [compound 90, N-(2,2-Diphenylethyl)-2-(9H-Purin-9-yl)Quinazolin-4-Amine] | 264 | 94 ± 10 | 75 ± 2
22 | c1ccc(C(Nc2nc(-c3ccsc3)nc3ccccc23)c2ccccc2)cc1 [compound 11, N-Benzhydryl-2-(thiophen-3-yl)quinazolin-4-amine] | 152 to 155 | 770 | 100
23 | c1ccc(C(CNc2nc(-c3cnc(N4CCCCC4)nc3)nc3ccccc23)c2ccccc2)cc1 [compound 38, N-(2,2-Diphenylethyl)-2-(2-(Piperidin-1-yl)Pyrimidin-5-yl)Quinazolin-4-Amine] | 92 | 1420 | 100
24 | c1ccc(CC(CNc2nc(-c3cnc4nccn4c3)nc3ccccc23)c2ccccc2)cc1 (stereo not drawn) [compound 142, N-(2,3-Diphenylpropyl)-2-(Imidazo[1,2-A]Pyrimidin-6-yl)Quinazolin-4-Amine] | 189 to 191 | 15 ± 3 | 73 ± 2
25 | CN(C)c1ncc(-c2cccc(C(CNc3nc(-c4cnc(N(C)C)nc4)nc4ccccc34)c3ccccc3)n2)cn1 (stereo not drawn) [compound 57, 2-(2-(Dimethylamino)Pyrimidin-5-yl)-N-(2-(6-(2-(Dimethylamino)Pyrimidin-5-yl)Pyridin-2-yl)-2-Phenylethyl)Quinazolin-4-Amine] | 112 | 55 ± 18 | 61 ± 3
26 | Cc1cc2nccn2cc1-c1nc(NCC(c2ccccc2)C2CC2)c2ccccc2n1 (stereo not drawn) [compound 179, N-(2-Cyclopropyl-2-Phenylethyl)-2-(7-Methylimidazo[1,2-A]Pyridin-6-yl)Quinazolin-4-Amine] | 236 to 238 | 3 ± 1 | 80 ± 4
27 | O=C1Cc2cc(-c3nc(NCC(c4ccccc4)c4ccccc4)c4ccccc4n3)ccc2N1 [compound 78, 5-(4-((2,2-Diphenylethyl)Amino)Quinazolin-2-yl)Indolin-2-One] | 244 | 30 ± 5 | 77 ± 2
28 | CC(C)(C)OC(=O)n1cc(-c2nc(NCC(c3ccccc3)c3ccccc3)c3ccccc3n2)c2cccnc21 [compound 73, Tert-Butyl 3-(4-((2,2-Diphenylethyl)Amino)Quinazolin-2-yl)-1H-Pyrrolo[2,3-B]Pyridine-1-Carboxylate] | 105 | 1310 | < 100
29 | c1ccc(C(CNc2nc(-c3ccc4[nH]nnc4c3)nc3ccccc23)c2ccccc2)cc1 [compound 63, 2-(1H-Benzo[D][1,2,3]Triazol-5-yl)-N-(2,2-Diphenylethyl)Quinazolin-4-Amine] | 220 | 192 ± 37 | 72 ± 3
30 | Cc1cc2nccn2cc1-c1nc(NCC(C)(c2ccccc2)c2ccccc2)c2ccccc2n1 [compound 178, N-(2,2-Diphenylpropyl)-2-(7-Methylimidazo[1,2-A]Pyridin-6-yl)Quinazolin-4-Amine] | 275 to 277 | 5 ± 1.1 | 76 ± 3
31 | FC(F)(F)CNc1ncc(-c2nc(NCC(c3ccccc3)c3ccccc3)c3ccccc3n2)cn1 [compound 45, N-(2,2-Diphenylethyl)-2-(2-((2,2,2-Trifluoroethyl)Amino)Pyrimidin-5-yl)Quinazolin-4-Amine] | 224 | 175 ± 68 | 58 ± 4
32 | Cn1ncc2c(-c3nc(NCC(c4ccccc4)c4ccccc4)c4ccccc4n3)cccc21 [compound 65, N-(2,2-Diphenylethyl)-2-(1-Methyl-1H-Indazol-4-yl)Quinazolin-4-Amine] | 201 | 155 ± 92 | 50 ± 6
33 | c1ccc(C(CNc2nc(-c3cncnc3)nc3ccccc23)c2ccccc2)cc1 [compound 18, N-(2,2-Diphenylethyl)-2-(Pyrimidin-5-yl)Quinazolin-4-Amine] | 213 to 215 | 160 | < 100

Source: patent US9873702B2, “Heterocyclic compounds as biogenic amine transport modulators” (Southern Research Institute, priority 2014, dated 2018)
